Data set [1] deals with EBV-positive NPC43, C666-1, Raji cells. To be noted: 1-20 μM, 5 days.
Data set [2] has as its system EBV-negative HeLa xenografts. To be noted: 4 μg/injection every three days, 19 days.
In a further data set the test system is BZLF1 (Zta) and BMRF1. Kind of data set: IHC of EBV lytic proteins in C666-1-derived tumor tissues. Format: in vivo, Epstein-Barr virus.
Data set [3] deals with Rta, BMRF1 and gp350/220 in EBV-positive NPC43 cells. The data set can be described thus: Western blot of EBV lytic proteins. Format: cell-based, Epstein-Barr virus. To be noted: 10 μM, 7 days.
Data set [4] has as its system EBV-positive C666-1 xenografts. The data set can be described thus: C666-1 nude mice xenograft, intratumoral injection. Format: in vivo, BALB/c nude mice. The settings on record: 18 days.

Structures are written as SMILES. Numbered stars: 1 amine (or outer) side, 2 acyl side, 3 side chain; on linkers, the order of the positions; unused ones are H or OH. Square brackets hold non-standard residues; d marks the D form. Peptide text beside a SMILES is read from it. * marks the point of attachment. X2 = O=C(c1ccc(/C=C/c2ccc(N[*:1])cc2)cc1)[*:2]; X1 = O=C(CN(Cc1ccccn1)Cc1ccccn1)*

Regarding `CSCC[C@H](NC(=O)[C@H](Cc1ccccc1)NC(=O)[C@H](Cc1ccc(O)cc1)NC(=O)c1ccc(/C=C/c2ccc(NC(=O)CN(Cc3ccccn3)Cc3ccccn3)cc2)cc1)C(=O)N[C@H](C(=O)N[C@@H](Cc1ccccc1)C(=O)O)C(C)C` [ZRL5P2] (X1-[X2]YFMVF-OH), in data set [1], the “cytotoxicity / growth inhibition in EBV-positive cells” value was “least efficient”. Further, the “changes in body weights compared to the control” value in data set [2] is given as “did not cause any significant changes”. The “tumor areas positive for BMRF1 (IHC)” value in the data set on BZLF1 (Zta) and BMRF1 stood at 1.15%. Besides, the “protein levels of Rta and BMRF1” value in data set [3] is given as “much weaker than that of ZRL5P4”. Further, in data set [4] (4 μg/injection intra-tumoral twice weekly), the “effect on tumor growth” value was “did not significantly affect tumor growth”. Besides, the “changes in body or organ weights compared to the vehicle control” value in data set [4] (4 μg/injection) is recorded as “did not cause significant changes”.

These data come from patent publication US11046731B2, “Zinc-binder based EBNA1-specific compounds” (priority 2018, dated 2021).
